The source of these data is US12377095B2, “Use of ligustrazine nitrone derivatives in treatment and prevention of diabetic complication diseases” (QINGDAO HAILAN PHARMACEUTICALS CO., LTD., priority 2019, dated 2025).

Assay [1] relates to STZ-induced DKD rats. In words: Blood glucose and urine protein in STZ-induced DKD rats. The format is in vivo, rat. How it is done: SD rats (200±10 g) were used as model animals, which were fasted for 12 h before injection. STZ was dissolved in citrate buffer at 1% concentration, and rats were fasted and intraperitoneally injected with 55 mg/kg STZ and placed in the cage, the rats being ensured with adequate water intake for 24 h. STZ injections need to be fast and complete within 10 minutes of injection. The normal control group was injected with an equal volume of pH 4.5 citric acid-sodium citrate buffer. The state of the animals (multiple drinking and polyuria) was observed. After 3 weeks of STZ injection, blood was collected from the tail vein, and fasting blood glucose ≥16.7 mmol/L was measured as the standard for diabetic nephropathy in rats.
DKD rats were randomly assigned to 6 groups and given with different drugs. After 6 weeks of administration, the experiment was terminated and the protective effect of the drug on DKD rats was observed.
During the experiment, the blood glucose of the rats was monitored after the completion of the modeling and after the completion of the administration, and urine protein was collected once at 24 hour.

For assay [2], the system named is STZ-induced DKD rats. In words: Serum iron content of STZ-induced DKD rats. The class given is in vivo, rat. How it is done: (§1) Before the injection, the rats were fasted for 12 hours without water. After weighing, the rats were injected with 55 mg/kg STZ intraperitoneally (STZ needs to be injected quickly, and the injection was completed within 10 minutes), and then returned to the cage to ensure that the rats had sufficient drinking water for 24 hours. Rats were injected with an equal volume of citrate buffer (pH 4.5). After STZ injection for 3 weeks, blood was collected from the tail vein, and blood glucose ≥16.7 mmol/L was used as the criteria for the standard of the rats.
(§2) The route of administration is intragastric administration. TBN was administered twice a day (fixed at 9:00-10:00 am and 3:00-4:00 pm), and Losartan was administered once a day (fixed at 9:00-10:00 am) continuously for 6 weeks.
At the end of the experiment, after rats were anesthetized, blood was taken from the abdominal aorta. After standing for 1 hour, the rats were centrifuged at 3000 rpm for 10 minutes and stored in aliquots at −80° C. An automatic biochemical analyzer was used to detect the content of iron ions in the serum.

Assay [3] concerns db/db mice. Kind of assay: HE histopathology of kidney tissue in db/db mice. The format is in vivo, mouse. The source says:
db/db mice are congenital obese type 2 DKD mice with spontaneous mutations in the leptin receptor (Leptin receptor, Lepr) due to a point mutation in the leptin receptor gene GT located on chromosome 4. The course of polyphagia, polyuria, diabetes and hyperglycemia is similar to that of humans, and it is currently the most widely used type 2 spontaneous animal model of DKD. The db/db mice have a series of complications with the aggravation of diabetes. The main pathological changes of renal tissue are the expansion of the glomerular mesangial interstitium, the thickening of the glomerular basement membrane, and the excessive accumulation of extracellular matrix. However, the glomerular mesangium of db/db mice changes relatively slowly, and the glomerular mesangium will not be dissolved or nodular glomerulosclerosis, and there is no progressive renal insufficiency.
Six-week-old db/db mice were purchased, and start the administration after adaptive feeding for 1 week (i.e., 7-week-old). TBN is administered twice a day (fixed by starting from 9:00-10:00 am and 3:00-4:00 pm, with an interval of 6 hours), and the positive control drug Losartan was administered once a day (fixed at 9:00-10:00 am) for 6 weeks.
The HE dyeing process is as shown in Example 9.

The test system of assay [4] is STZ-induced SHR rats. In words: HE kidney morphology of STZ-induced SHR rats. The format is in vivo, rat. As to conditions: 60 mg/kg. As for the experimental part: 6 W-age SHR rats were abstained from food but not water for 12 h before injection, and then intraperitoneally injected with 55 mg/kg STZ after weighing (STZ required for fast injection, to be completed within 10 min), then put back to the cage to ensure that rat has sufficient drinking water in the period of 24 h, and the rats of normal control group were injected with citric acid buffer (pH 4.5) in the same volume. After 3 weeks of STZ injection, retinal venous blood was collected, and blood glucose ≥16.7 mmol/L was used as a molding standard, where the model of SHR rats that meet the above criteria is considered successful.
The route of administration is intragastrical, TBN is administered twice a day (fixed at 9:00-10:00 am and 3:00-4:00 pm), and Losartan is administered once a day (fixed at 9:00-10:00 am), continuously for 6 weeks.
The process is the same as in Example 9.

In assay [5] the test system is cisplatin-induced C57BL/6J mice. In words: Hepcidin level in cisplatin-induced renal anemia C57BL/6J mice. As to conditions: 60 mg/kg twice/day, 4 weeks, P<0.05. The class given is in vivo, mouse. How it is done: (§3) Modeling method: the animals were randomly divided into 5 groups, i.e., normal control group, model group, three treatment groups, wherein the normal control group was injected with equal volume of normal saline, the model group and three treatment groups were intraperitoneally injected with cisplatin (CDDP) 5 mg/kg once a week, for 4 weeks.
(§4) The route of administration is intragastrical. TBN is administered twice a day (fixed at 9:00-10:00 am and 3:00-4:00 pm), and Roxadustat is administered once every two days (fixed at 9:00-10:00 am), for 4 weeks.
Hepcidin is a cysteine-rich antibacterial polypeptide synthesized and secreted by the liver. It plays a negative regulatory role in the regulation of iron balance in the body and can be used to indirectly evaluate the symptoms of anemia in mice. […] Cisplatin and other chemotherapeutic drugs can cause iron regulation imbalance in mice, and TBN administration can reduce the expression level of iron regulation in the body, and thus can be used to treat cancer complicated renal anemia.

For assay [6], the system named is STZ-induced DKD rats. In words: Masson staining, interstitial fibrosis index, STZ-induced DKD rats. The format is in vivo, rat. As for the experimental part:
as §1, §2
At the end of the experiment, the kidney tissues were quickly separated, fixed with 4% paraformaldehyde and embedded in paraffin, serially sliced, 5 μm each, dried at 37° C. for 1 h, and then subjected to Masson staining. The process is briefly as follows: paraffin sections are taken out of the 65° C. oven and immediately put in xylene for dewaxing and gradient alcohol rehydration, according to the kit instructions, add reagent A (a mixture of equal amounts of A1 and A2) for dyeing for 8 min; then use Reagent B differentiates and reagent C turns blue; reagent D stains for 7 min; reagent E washes for 1 min; reagent F washes for 1 min; reagent G stains for 1 min; dehydrated with 95% ethanol and absolute ethanol, transparent xylene, sealed with neutral gum piece.

For assay [7], the system named is cisplatin-induced C57BL/6J mice. Kind of assay: Serum erythropoietin in cisplatin-induced renal anemia C57BL/6J mice. The format is in vivo, mouse. How it is done:
as §3, §4
At the end of the experiment, after rats were anesthetized, the blood was taken from the abdominal aorta, allowed to stand for 1 hour, centrifuged at 3000 rpm for 10 min, and stored in aliquots at −80° C. The content of erythropoietin in the serum was detected by using of a kit. After the administration, compared with the model group, the TBN treatment groups can increase the expression of erythropoietin to varying degrees.

In the case of `Cc1nc(C)c(/C=[N+](\[O-])C(C)(C)C)nc1C` [TBN], in assay [1] (24 hour urine, DKD rats), the “urinary protein content in urine” value is reported as “significantly reduced”. Also, in assay [1] (after 6 weeks of treatment), the blood glucose result was “significantly decreased”. In assay [2] (TBN high dose group, P<0.05 vs Vehicle), the “increase in serum iron content” value is “the most significant”. The serum iron content result in assay [2] (each administration group of TBN (10, 30, 60 mg/kg), dose-dependent) was “increased”. The “degree of infiltration of kidney inflammatory cells vs db/db group” value in assay [3] (30 mg/kg and 60 mg/kg dose groups) was “obviously improved”. Moreover, the “pathological structure of kidney injury (H&E)” value in assay [3] (TBN dose groups (10, 30, 60 mg/kg), in various degrees) is on record as “improvement”. For the same molecule, in assay [3] (TBN treatment groups, dose-dependent, more significantly for 30 mg/kg and 60 mg/kg), the “glomerular area (glomerular surface)” value is “reduced”. Besides, the “renal pathological changes (H&E)” value in assay [4] is “improvement”. The “level of iron regulation (hepcidin) vs model group” value in assay [5] was “significantly reduced”. Also, the interstitial fibrosis index entry in assay [6] (60 mg/kg, P<0.01) is listed as “improved the most significantly”; in assay [6] (TBN treatment groups (10, 30, 60 mg/kg), dose-dependent) it was “decreased”. Besides, the “expression/content of erythropoietin vs model group” value in assay [7] (TBN treatment groups (30, 60 mg/kg), to varying degrees, dose dependence) is reported as “increase”. The “efficacy on EPO content compared with positive control drug” value in assay [7] (high-dose group (60 mg/kg) vs Roxadustat 10 mg/kg) is “stronger than that of the positive control drug”.
